The values below come from publication PMC10697071, “Bio-guided isolation of alpha-glucosidase inhibitory compounds from Vietnamese liverwort Marchantia polymorpha: in vitro and in silico studies” (RSC Advances, 2023).

The target of one test is yeast alpha-glucosidase. Kind of test: Alpha-glucosidase inhibition assay. Type of test: biochemical. The following applies: for IC50: yeast alpha-glucosidase. The text has this:
Evaluation of the inhibitory activity of 1–12 against yeast alpha-glucosidase followed a previous procedure.[37]

The test system of another test is alpha-glucosidase. Kind of test: Kinetic study of alpha-glucosidase inhibition (Lineweaver–Burk plots). Type of test: biochemical. As to the method:
To examine the inhibition mechanism, activity at concentrations of 0, 3.61, 7.22, 14.44, and 28.88 μM of 2 was recorded. […] Increasing inhibitor concentrations cause a decrease in the Vmax of α-glucosidase.
The mechanisms of inhibition of alpha-glucosidase by 2 were determined by Lineweaver–Burk plots (Microsoft Excel 2010, Washington, USA), using methods similar to those reported in the literature.[40] Enzyme inhibition due to various concentrations of 2 was evaluated by monitoring the effects of different concentrations of the substrate. For Lineweaver–Burk double reciprocal plots 1/enzyme velocity (1/V) vs. 1/substrate concentration (1/[S]), the inhibition type was determined using various concentrations of pNPG (1 mM, 2 mM, and 4 mM) as a substrate in the presence of different concentrations of the test compound (0, 3.61, 7.22, 14.44, and 28.88 μM for 2). The experiments were carried out in three replicates. The mixtures were incubated at 37 °C, and the optical density was measured at 405 nm every 1 min for 30 min with the ELx800 Absorbance Microplate Reader (BioTek Instruments, Inc., Vermont, USA). The optimal concentrations of the tested compound were chosen based on the IC50 value. The inhibition constants were obtained graphically from secondary plots (Microsoft Excel 2010, Washington, USA).

“Also recorded” adds a separate entry of the source.

Usually IC50 stands for the midpoint of a concentration-inhibition curve. In turn, `Oc1cc2cc(c1O)Oc1ccc(cc1)CCc1cccc(O)c1Oc1cccc(c1)CC2` [Compound 1, Marchantin A] registered an IC50 against yeast alpha-glucosidase of 57.3 ± 1.9 µM. Regarding Vitexilactone [Compound 9], on yeast alpha-glucosidase, the IC50 was above 200 µM. Regarding `Oc1cccc2c1Oc1cccc(c1)CCc1cc(c(O)c(O)c1Br)Oc1ccc(cc1)CC2` [Compound 1a, 5′-Bromomarchantin A], in the test with yeast alpha-glucosidase (qualitative statement), the “Alpha-glucosidase inhibition (in words)” value was “weaker activity than the parent compound 1”. At yeast alpha-glucosidase, it took 151 ± 2.9 µM to reach half-maximal inhibition (IC50).

At yeast alpha-glucosidase, `CC1(C)CC[C@]2(C)CC[C@]3(C)C(=CCC4[C@@]5(C)CCC(=O)C(C)(C)C5CC[C@]43C)C2C1` (stereo partly drawn) [Compound 10, 12-Oleanene-3-one] came in with an IC50 of 75.1 ± 1.8 µM. A word on the Ki: it is the dissociation constant of the complex between target and ligand, obtained from inhibition or displacement. In the case of `Oc1ccc2cc1Oc1ccc(cc1)CCc1ccc(c(O)c1)-c1c(O)cccc1CC2` [Compound 2, Isoriccardin C], the Type of inhibition result in the test on alpha-glucosidase (Lineweaver–Burk plots, same Km, decreasing Vmax) is on record as “non-competitive inhibitor; also recorded: non-competitive type”. The Ki at alpha-glucosidase (pNPG substrate 1, 2, 4 mM, 37 °C, secondary plot of slope versus concentration, read-out: Ki (inhibition constant)) was 67.1 ± 1.28 µM. Half-maximal inhibition against yeast alpha-glucosidase (IC50) was put at 28.9 ± 0.2 µM. For the compound `COc1cc(OC)c2c(c1)[C@@H](Cc1ccc(OC)c(OC)c1)OC2=O` [Compound 6, 3R-(3,4-Dimethoxybenzyl)-5,7-dimethoxyphthalide], on yeast alpha-glucosidase, the IC50 is above 200 µM. With `Oc1ccc2c(c1)CCc1ccc(cc1)Oc1cc(ccc1O)CCc1ccc-2c(O)c1` [Compound 3, Riccardin C], the midpoint of inhibition against yeast alpha-glucosidase, the IC50, lay at 42.2 ± 1.4 µM. `C[C@@H]1CC[C@]2(C(=O)O)CC[C@]3(C)C(=CC(=O)C4[C@@]5(C)CCC(=O)C(C)(C)C5CC[C@]43C)C2[C@H]1C` (stereo partly drawn) [Compound 11, 3,11-Dioxoursolic acid] had an IC50 at yeast alpha-glucosidase of 101 ± 3 µM. On to `Oc1ccc(CCc2cccc(O)c2)cc1` [Compound 5, Lunularin], for which, at yeast alpha-glucosidase, the IC50 is 130 ± 2 µM. Same read-out and setting: the figure for `COc1cc(OC)c2c(c1)[C@H](Cc1cc(OC)c(OC)c(OC)c1)OC2=O` [Compound 7, Marchatoside] is above 200 µM; for `COC1Cc2cccc(c2)Oc2c(ccc(O)c2O)CCc2ccc(cc2)Oc2cc1cc(O)c2O` (stereo not drawn) [Compound 4, Marchantin K] it is 131 ± 3 µM.

Take `C[C@H]1[C@H](C)CC[C@]2(C(=O)O)CC[C@]3(C)C(=CC[C@@H]4[C@@]5(C)CC[C@H](O)C(C)(C)[C@@H]5CC[C@]43C)[C@H]12` [Compound 12, Ursolic acid]: the IC50 at yeast alpha-glucosidase stood at 86 ± 6.9 µM.
